The text below walks through data of patent US20090306342A1, “BINDING OF MOLECULES” (BIO-LAYER PTY LIMITED, priority 2005, published 2009).

The subject of test [1] is Human IgG. The experiment in a line: SPR IgG binding assay on gold (Example 4). To be noted: IgG 10-100 ug/mL, polyacrylic acid on gold, FIG. 7. The procedure: Slides were then rinsed in Ethanol and incubated in a solution of 1% Polyacrylic acid. 2% w/v Polyacrylic acid was prepared by adding […] of Stock 10% w/v PAA solution (Poly(Acrylic Acid) MW 50K 10% w/v solution in DMF) to […] (N,N-Dimethylformamide (DMF) Labscan HPLC Grade—Dried over sieves and filtered). 100 mM solutions of NHS and DIC were prepared in dry DMF (N-Hydroxysuccinimide (NHS) (Aldrich cat: 130672), N,N′-Diisopropylcarbodiimide (DIC) (Sigma Aldrich cat: D125407)). 15 mL of 100 mM NHS and 15 mL of 100 mM DIC were added to 30 mL of 2% w/v of PAA solution and shaken on a RATEK platform mixer with speed setting 70 for 10 minutes. This gave a final 1.0% w/v solution of activated PAA. Each amino functionalized gold slide was placed in 10 mL of activated 1% wlv PAA solution and allowed to shake on a RATEK platform mixer with speed setting […] for 1 hour. The slides were then rinsed with dry DMF and using house nitrogen with a filter pipette tip in the end of the hose, the slides were blown dry using a concentrated flow over each slide. […]
The first concentration of IgG to be flowed through the cell and over the slide was 10 μg/mL. […] After the final concentration of 100 μg/mL IgG was analyzed, the signal was monitored by flowing 10 mM Phosphate Buffered Saline pH7.4 with 0.2% Tween20 over the slide. […]

For test [2], the system named is Fc of an antibody. As to conditions: Protein A binding region; cited from earlier work.

Entries after “also recorded” stand apart in the source; their conditions may differ.

In the case of `NCCNc1nc(NCCc2ccc(O)cc2)nc(Nc2ccccc2)n1` [APA, 2-(2-aminoethylamino)-4-anilino-6-tyramino-s-triazine], the “IgG binding by SPR” value in test [1] is reported as “poor or non-existent”. In addition, the “affinity for the Fc of an antibody” value in test [2] is recorded as “medium affinity; also recorded: weakly binds”.
